Two molecules from ChEMBL document CHEMBL1146480, “Antimycobacterial Naphthopyrones from Senna obliqua” (2004) can be followed below.

For assay [1], the system named is Mycobacterium tuberculosis. Description: Antimycobacterial activity against Mycobacterium tuberculosis ATCC 27294 in radiometric culture by NCCLS method. It counts as functional.
For assay [2], the system named is Mycobacterium tuberculosis. The assay is described as follows: Antimycobacterial activity against Mycobacterium tuberculosis ATCC 27294 in radiometric culture at 50 ug/ml by NCCLS method. Format: functional.

As usually defined, the MIC is the smallest concentration in the dilution series that meets the test's criterion for growth inhibition. Broadly, the inhibition is the change of the read-out against control, counted positive when it falls.

The structures appear in SMILES notation. Converted amounts (≈) assume the structure as drawn.

In turn, `COc1cc(O)c2c(O)c3c(=O)cc(C)oc3cc2c1` [RUBROFUSARIN] displayed an MIC in assay [1] of 12 µg/mL (≈ 44.1 µM). Also, in assay [2], 50 µg/mL produced 99% inhibition.
As for `COc1cc(O)c2c(O)c3c(=O)cc(C)oc3cc2c1C` [QUINQUANGULIN], the minimum inhibitory concentration (MIC) in assay [1] is 12 µg/mL (≈ 41.9 µM). This molecule also showed an inhibition at 50 µg/mL in assay [2] of 99%.
